# In BindingDB's records for doi:10.3109/14756360903468155 (Banaras Hindu University, 2010):
# Target: Urease (Glycine max, UniProt Q949H4)
# Assay: Urease Inhibition Assay
# Details: pH 7; 37 °C
# Protocol: The inhibition studies of soybean urease were initiated with boric acid and boronic acids (butylboronic acid, 4-bromophenylboronic acid, and phenylboronic acid). Also, heavy metal ions (HgCl2, AgCl, and Cu(CH3COO)2) and sodium salts of mineral acids (NaF, NaCl, NaNO3, and Na2SO4) were investigated for their inhibitory effects. Stock solutions of inhibitors, except for 4-bromophenylboronicacid, were prepared in 0.05 M Tris-acetate buffer, pH 7.0, and were suitably diluted for experiments, whereas a stock solution of 4-bromophenylboronic acid was prepared in absolute ethanol and subsequently diluted in respective buffer. The activity assay was carried out at standard conditions as described earlier in the presence of varying concentrations of inhibitors. The yellow-orange colored solution was measured at 405 nm on a Unicam UV-2 spectrophotometer. The amount of NH3 liberated in the reaction mixture was estimated by calibrating Nessler's reagent with standard NH4Cl solution. One enzyme unit is defined as the amount of urease required to liberate 1 μmol of ammonia per minute under our test conditions (0.1 M urea, 0.05 M Trisacetatebuffer, pH 7.0, 37°C).
# Chain of Urease (Q949H4 whole entry): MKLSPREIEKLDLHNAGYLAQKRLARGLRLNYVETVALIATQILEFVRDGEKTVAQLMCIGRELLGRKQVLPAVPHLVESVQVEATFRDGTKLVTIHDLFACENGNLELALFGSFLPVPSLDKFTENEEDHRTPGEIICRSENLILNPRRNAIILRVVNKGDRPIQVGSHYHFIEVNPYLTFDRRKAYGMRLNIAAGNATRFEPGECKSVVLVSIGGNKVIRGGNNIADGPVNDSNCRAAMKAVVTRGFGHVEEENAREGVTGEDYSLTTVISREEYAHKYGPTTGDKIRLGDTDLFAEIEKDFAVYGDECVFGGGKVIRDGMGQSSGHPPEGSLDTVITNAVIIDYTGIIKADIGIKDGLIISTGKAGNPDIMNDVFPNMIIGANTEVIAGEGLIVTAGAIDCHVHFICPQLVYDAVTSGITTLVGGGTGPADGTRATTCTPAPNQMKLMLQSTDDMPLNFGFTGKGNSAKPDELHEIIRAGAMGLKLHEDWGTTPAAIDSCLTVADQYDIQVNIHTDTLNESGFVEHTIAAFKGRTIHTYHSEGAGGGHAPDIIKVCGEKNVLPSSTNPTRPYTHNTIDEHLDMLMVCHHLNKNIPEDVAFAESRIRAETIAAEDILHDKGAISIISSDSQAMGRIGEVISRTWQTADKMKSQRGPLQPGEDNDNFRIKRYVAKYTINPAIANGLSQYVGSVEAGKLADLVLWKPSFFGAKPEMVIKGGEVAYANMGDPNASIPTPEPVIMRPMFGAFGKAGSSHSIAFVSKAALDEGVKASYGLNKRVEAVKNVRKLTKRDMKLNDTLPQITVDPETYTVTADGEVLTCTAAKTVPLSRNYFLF
row,Ki,SMILES
1,220 µM,OB(O)c1ccc(Br)cc1 [4-bromo phenyl boronic acid]
2,200 µM,OB(O)O [Boric acid]
3,1500 µM,CCCCB(O)O [Borinic acid derivative]
4,2000 µM,"OB(O)c1ccccc1 [Phenylboronic acid, 22]"
